Laboratory results: ChEMBL document CHEMBL1157632, “Discovery of dipeptides with high affinity to the specific binding site for substance P1-7” (J Med Chem, 2010)
The source made the active and inactive calls. The calls are words filed in the database; no cut-off is given here. Peptide text beside a SMILES is read from it.

Biological target: Neuromedin-K receptor (NK-3) (Homo sapiens) (UniProt P29371)
Test: Displacement of [MePhe7]-NKB from human recombinant NK3 receptor at 10 uM

Sequence of Neuromedin-K receptor (NK-3) (Homo sapiens) (P29371 whole entry, looked up): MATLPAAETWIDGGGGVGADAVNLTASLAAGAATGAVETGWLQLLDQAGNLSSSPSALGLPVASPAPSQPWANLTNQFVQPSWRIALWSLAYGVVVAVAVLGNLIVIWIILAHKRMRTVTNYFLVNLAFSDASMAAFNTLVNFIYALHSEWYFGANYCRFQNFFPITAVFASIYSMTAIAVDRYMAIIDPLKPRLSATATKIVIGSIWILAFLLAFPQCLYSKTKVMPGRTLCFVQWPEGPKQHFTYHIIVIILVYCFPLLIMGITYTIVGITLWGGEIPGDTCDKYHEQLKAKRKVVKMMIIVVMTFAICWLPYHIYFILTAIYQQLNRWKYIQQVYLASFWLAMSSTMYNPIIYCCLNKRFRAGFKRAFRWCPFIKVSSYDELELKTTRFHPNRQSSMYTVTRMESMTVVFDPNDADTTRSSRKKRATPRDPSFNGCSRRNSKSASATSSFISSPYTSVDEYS

Activity: inactive
Structure (SMILES): NC(=O)[C@H](Cc1ccccc1)NC(=O)[C@@H](N)Cc1ccccc1 (H-Phe-Phe-NH2)
